Measured values as given in patent US4448962A, “Substituted quinoline carboxylic acid derivatives” (Kyorin Seiyaku Kabushiki Kaisha, priority 1978, dated 1984).
In brackets after ≈: the same amount, converted by molar mass. Like-named read-outs stand apart in the source and are kept apart here.

Columns and labels:
Experiment in all cases: Antibacterial spectrum (Minimum Inhibitory Concentration)
Format in all cases: cell-based
[1] = test system: E. coli ATCC 10536; conditions: Escherichia coli
Source text: (§1) The antibacterial tests were done according to the method authorized by the Chemotherapeutic Society of Japan.

[2] = test system: Escherichia coli NIHJ JC-2
Source text: as §1

[3] = test system: Klebsiella pneumoniae IFO 3512
Source text: as §1

[4] = test system: Pr. vulgaris XK Denken; conditions: Proteus vulgaris, read-out: Minimum Inhibitory Concentration
Source text: as §1

[5] = test system: Proteus vulgaris IFO 3167
Source text: as §1

[6] = test system: Ps. aeruginosa IFO 12689; conditions: Pseudomonas aeruginosa
Source text: as §1

[7] = test system: Pseudomonas aeruginosa V-1
Source text: as §1

[8] = test system: Bacillus subtilis PCI 219
Source text: as §1

[9] = test system: Ps. aeruginosa IID 1130; conditions: Pseudomonas aeruginosa, IID1130, read-out: Minimum Inhibitory Concentration
Source text: as §1

[10] = test system: Ps. aeruginosa IID 1210; conditions: Pseudomonas aeruginosa, IID1210, read-out: Minimum Inhibitory Concentration
Source text: as §1

[11] = test system: Sta. aureus ATCC 14775; conditions: Staphylococcus aureus
Source text: as §1

[12] = test system: Staphylococcus aureus 209P; conditions: read-out: Minimum Inhibitory Concentration
Source text: as §1

[13] = ATCC10536, E. coli ATCC 10536, Gram -, read-out: Minimum Inhibitory Concentration
[14] = NIHJJC2, Escherichia coli NIHJ JC-2, Gram -, read-out: Minimum Inhibitory Concentration
[15] = IFO3512, Klebsiella pneumoniae IFO 3512, Gram -, read-out: Minimum Inhibitory Concentration
[16] = IFO3167, Proteus vulgaris IFO 3167, Gram -, read-out: Minimum Inhibitory Concentration
[17] = IFO12689, read-out: Minimum Inhibitory Concentration
[18] = V1, Pseudomonas aeruginosa V-1, Gram -, read-out: Minimum Inhibitory Concentration
[19] = Escherichia coli, NIHJJC2, read-out: Minimum Inhibitory Concentration
[20] = Klebsiella pneumoniae, IFO3512, read-out: Minimum Inhibitory Concentration
[21] = Pseudomonas aeruginosa, V1, read-out: Minimum Inhibitory Concentration
[22] = PCI219, Bacillus subtilis PCI 219, Gram +, read-out: Minimum Inhibitory Concentration
[23] = IFO12689, Ps. aeruginosa IFO 12689, Gram -, read-out: Minimum Inhibitory Concentration
[24] = Staphylococcus aureus 209P, Gram +

| Structure (SMILES) | MIC [1, 13] | MIC [2, 14] | MIC [3, 15] | MIC ([4]; Pr. vulgaris XK Denken, Gram -) | MIC [5, 16] | MIC [7, 18] | MIC [8, 22] | MIC [6, 23] | MIC [12, 24] | further results |
| --- | --- | --- | --- | --- | --- | --- | --- | --- | --- | --- |
| CCN1CCN(c2cc3c(cc2F)c(=O)c(C(=O)O)cn3CC)CC1 [Example 2, 1-ethyl-6-fluoro-7-(4-ethyl-1-piperazinyl)-4-oxo-1,4-dihydroquinoline-3-carboxylic acid] | 0.1 µg/mL (≈ 0.288 µM) | 0.1 µg/mL (≈ 0.288 µM) | < 0.025 µg/mL | 0.2 µg/mL (≈ 0.576 µM) | 0.2 µg/mL (≈ 0.576 µM) | 3.13 µg/mL (≈ 9.01 µM) |  |  |  | MIC [6, 17]: 6.25 µg/mL (≈ 18 µM) |
| C=Cn1cc(C(=O)O)c(=O)c2cc(F)c(N3CCNCC3)cc21.Cl [Example 3, 1-vinyl-6-fluoro-7-(1-piperazinyl)-4-oxo-1,4-dihydro-quinoline-3-carboxylic acid hydrochloride] |  |  |  |  |  |  |  |  |  | MIC ([8]; Bacillus subtilis, PCI219, read-out: Minimum Inhibitory Concentration): 0.39 µg/mL; MIC ([1]; ATCC10536, read-out: Minimum Inhibitory Concentration): 0.1 µg/mL; MIC [2, 19]: 0.1 µg/mL; MIC [3, 20]: 0.1 µg/mL; MIC [4]: 0.39 µg/mL; MIC ([5]; Proteus vulgaris, IFO3167, read-out: Minimum Inhibitory Concentration): 0.2 µg/mL; MIC [6, 17]: 1.56 µg/mL; MIC [9]: 1.56 µg/mL; MIC [10]: 1.56 µg/mL; MIC [7, 21]: 0.39 µg/mL; MIC ([11]; ATCC14775, read-out: Minimum Inhibitory Concentration): 6.25 µg/mL; MIC ([12]; Staphylococcus aureus, 209P): 3.13 µg/mL |
| CCn1cc(C(=O)O)c(=O)c2cc(Cl)c(N3CCN(C)CC3)cc21 [Example 9, 1-ethyl-6-chloro-7-(4-methyl-1-piperazinyl)-4-oxo-1,4-dihydro-quinoline-3-carboxylic acid] | 0.78 µg/mL (≈ 2.23 µM) | 1.56 µg/mL (≈ 4.46 µM) |  | 0.78 µg/mL (≈ 2.23 µM) | 0.78 µg/mL (≈ 2.23 µM) | 25 µg/mL (≈ 71.5 µM) | 0.78 µg/mL (≈ 2.23 µM) | 50 µg/mL (≈ 143 µM) | 1.56 µg/mL (≈ 4.46 µM) | MIC [3, 20]: < 0.2 µg/mL |
| CCN1CCN(c2cc3c(cc2Cl)c(=O)c(C(=O)O)cn3CC)CC1 [Example 10, 1-ethyl-6-chloro-7-(4-ethyl-1-piperazinyl)-4-oxo-1,4-dihydroquinoline-3-carboxylic acid] | 0.78 µg/mL (≈ 2.14 µM) | 1.56 µg/mL (≈ 4.29 µM) | < 0.2 µg/mL | 1.56 µg/mL (≈ 4.29 µM) | 1.56 µg/mL (≈ 4.29 µM) | 50 µg/mL (≈ 137 µM) | 0.78 µg/mL (≈ 2.14 µM) | > 100 µg/mL | 0.78 µg/mL (≈ 2.14 µM) |  |
| CCn1cc(C(=O)O)c(=O)c2cc(Cl)c(N3CCN(Cc4ccccc4)CC3)cc21 [Example 11, 1-ethyl-6-chloro-7-(4-benzyl-1-piperazinyl)-4-oxo-1,4-dihydroquinoline-3-carboxylic acid] | 25 µg/mL (≈ 58.7 µM) | 100 µg/mL (≈ 235 µM) | 0.78 µg/mL (≈ 1.83 µM) | 50 µg/mL (≈ 117 µM) | 100 µg/mL (≈ 235 µM) |  | 1.56 µg/mL (≈ 3.66 µM) | > 100 µg/mL | 3.13 µg/mL (≈ 7.35 µM) | MIC [7, 21]: > 100 µg/mL |
| CCn1cc(C(=O)O)c(=O)c2cc(Cl)c(N3CCN(C(=O)C(F)(F)F)CC3)cc21 [Example 12, 1-ethyl-6-chloro-7-(4-trifluoroacetyl-1-piperazinyl)-4-oxo-1,4-dihydroquinoline-3-carboxylic acid] | 0.78 µg/mL (≈ 1.81 µM) |  | 0.78 µg/mL (≈ 1.81 µM) | 0.78 µg/mL (≈ 1.81 µM) | 0.78 µg/mL (≈ 1.81 µM) | 25 µg/mL (≈ 57.9 µM) | 0.78 µg/mL (≈ 1.81 µM) | 50 µg/mL (≈ 116 µM) | 1.56 µg/mL (≈ 3.61 µM) | MIC [2, 19]: 3.13 µg/mL (≈ 7.25 µM) |
| CCn1cc(C(=O)O)c(=O)c2cc(Cl)c(N3CCN(C4OC(=O)c5ccccc54)CC3)cc21 (centres unmarked) [Example 15, 1-ethyl-6-chloro-7-(4-phthalidyl-1-piperazinyl)-4-oxo-1,4-dihydroquinoline-3-carboxylic acid] | 0.2 µg/mL (≈ 0.427 µM) | 0.2 µg/mL (≈ 0.427 µM) | 0.78 µg/mL (≈ 1.67 µM) | 0.39 µg/mL (≈ 0.833 µM) | 0.39 µg/mL (≈ 0.833 µM) | 6.25 µg/mL (≈ 13.4 µM) | 0.78 µg/mL (≈ 1.67 µM) | 12.5 µg/mL (≈ 26.7 µM) | 1.56 µg/mL (≈ 3.33 µM) |  |
| CCn1cc(C(=O)O)c(=O)c2ccc(N3CCNCC3)c(F)c21 [Example 16, 1-ethyl-7-(1-piperazinyl)-8-fluoro-4-oxo-1,4-dihydroquinoline-3-carboxylicacid hydrochloric] | 0.78 µg/mL (≈ 2.44 µM) | 0.78 µg/mL (≈ 2.44 µM) | 0.2 µg/mL (≈ 0.626 µM) | 1.56 µg/mL (≈ 4.89 µM) | 0.78 µg/mL (≈ 2.44 µM) | 1.56 µg/mL (≈ 4.89 µM) | 3.13 µg/mL (≈ 9.8 µM) | 12.5 µg/mL (≈ 39.1 µM) | 12.5 µg/mL (≈ 39.1 µM) | MIC ([11]; ATCC14775, Sta. aureus ATCC 14775, Gram +, read-out: Minimum Inhibitory Concentration): 25 µg/mL (≈ 78.3 µM) |
